One may read the EC50 as the midpoint of the concentration-response curve.

This experiment concerns the target T1, olfactory receptor co-receptor (Orco) (Anopheles gambiae, UniProt Q7QCC7).
T1 construct: codon-optimized Orco cDNA in pPICZA (C-terminal c-myc tag detected), expressed in Pichia pastoris GS115
T1 sequence (Q7QCC7 1-478): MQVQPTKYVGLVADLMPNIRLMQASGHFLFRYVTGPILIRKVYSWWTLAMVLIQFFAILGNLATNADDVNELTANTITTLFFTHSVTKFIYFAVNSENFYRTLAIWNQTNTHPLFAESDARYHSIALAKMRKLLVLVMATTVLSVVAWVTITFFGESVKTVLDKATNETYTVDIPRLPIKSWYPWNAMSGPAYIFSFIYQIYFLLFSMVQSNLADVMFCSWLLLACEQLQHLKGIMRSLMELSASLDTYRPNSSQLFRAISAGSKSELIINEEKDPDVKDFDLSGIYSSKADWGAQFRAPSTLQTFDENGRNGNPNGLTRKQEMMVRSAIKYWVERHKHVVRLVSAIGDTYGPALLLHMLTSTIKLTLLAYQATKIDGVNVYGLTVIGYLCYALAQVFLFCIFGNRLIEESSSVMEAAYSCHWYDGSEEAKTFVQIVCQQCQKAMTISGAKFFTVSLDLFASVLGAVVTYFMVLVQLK
In words: fluo-4-AM calcium influx assay in Pichia pastoris expressing Orco, compared with GS115 control cells ([…] extracellular Ca2+). Format: cell-based.

Consider `CCc1ccc(NC(=O)CSc2nnc(-c3cccnc3)n2CC)cc1` [VUAA1, 2‐(4‐ethyl‐5‐(pyridin‐3‐yl)‐4H‐1,2,4‐triazol‐3‐ylthio)‐N‐(4‐ethylphenyl)acetamide], for which the EC50 worked out at 410 µM.

Values taken from publication PMC7851572, “A Pichia biosensor for high‐throughput analyses of compounds that can influence mosquito behavior” (MicrobiologyOpen, 2020).
